Marks after values point to notes of the source that are not given here.
Experiments:
Format in all cases: cell-based
A. actinomycetemcomitans = assay: Multi-species biofilm composition: absolute abundance of A. actinomycetemcomitans; conditions: mean±SD n=3
Method: (§1) Biofilms are grown vertically on Calcium Deficient Hydroxyapatite (CAD-HA) disks (Hitemco Medical, Old Bethpage, USA) using the Amsterdam Active Adhesion model. Biofilms are allowed to establish during 24 h (37° C., 170 rpm) under micro-aerophilic conditions (6% O2, 7% CO2, 7% H2, 80% N2). After this 24 h, disks are rinsed 3 times a day for 3 minutes (RT, 250 rpm), for 3 consecutive days, by transferring the lid containing the disks to a new 24-well plate containing 2 mL/well of the appropriate substrate solution. As a negative control, PBS (pH 5.7) without substrate supplementation is used. After each rinsing step, disks are shortly dip-rinsed in a new 24-well plate containing fresh modified BHI medium (2 mL/well) to remove remaining substrate traces. Subsequently, the lid is transferred to another 24-well plate containing fresh modified BHI medium (2 mL/well), followed by incubation (micro-aerophilic, 37° C., 170 rpm) until the next rinsing step.
(§2) NADM, N-acetyl-D-glucosamine (“NADG”) and D-(+)-mannose are selected to determine their effects on multi-species biofilm composition. […] decrease in absolute numbers in at least four of the pathogenic bacterial species tested in the assay, compared to the control, the results of which are described in Table 1 below. Absolute abundances of bacterial species are shown as mean±SD (n=3) logarithmic values of the genome equivalents per millilitre (log(Geq/mL)).

F. nucleatum = assay: Multi-species biofilm composition: absolute abundance of F. nucleatum; conditions: for Absolute abundance Fn (F. nucleatum): mean±SD n=3
Method: as §1, §2

S. sobrinus = assay: Multi-species biofilm composition: absolute abundance of S. sobrinus; conditions: mean±SD n=3
Method: as §1, §2

A. viscosus = assay: Multi-species biofilm composition: absolute abundance of A. viscosus; conditions: mean±SD n=3
Method: as §1, §2

S. gordonii = assay: Multi-species biofilm composition: absolute abundance of S. gordonii; conditions: mean±SD n=3
Method: as §1
(§3) NADM, N-acetyl-D-glucosamine (“NADG”) and D-(+)-mannose are selected to determine their effects on multi-species biofilm composition. Repeated rinsing of the biofilms with the substrates at a concentration of 1M results in a significant decrease in absolute numbers in at least four of the pathogenic bacterial species tested in the assay, compared to the control, the results of which are described in Table 1 below. Absolute abundances of bacterial species are shown as mean±SD (n=3) logarithmic values of the genome equivalents per millilitre (log(Geq/mL)).

S. mitis = assay: Multi-species biofilm composition: absolute abundance of S. mitis; conditions: mean±SD n=3
Method: as §1, §2

S. sanguinis = assay: Multi-species biofilm composition: absolute abundance of S. sanguinis; conditions: mean±SD n=3
Method: as §1, §2

V. parvula = assay: Multi-species biofilm composition: absolute abundance of V. parvula; conditions: mean±SD n=3
Method: as §1, §3

multi-species biofilm = assay: Relative multi-species biofilm composition (groups of bacterial species); conditions: for Relative abundance Beneficials/Commensals / Relative abundance Cariogenic Pathogens / Relative abundance Periodontal Pathogens / Relative abundance Beneficial or commensals: mean±SD n=3
Method: as §1, §2
Relative abundances of the different groups (beneficial/commensals, periodontal pathogens, cariogenic pathogens) of bacterial species are shown as mean±SD (n=3) percentage of the genome equivalents per millilitre (% (Geq/mL)). […] NADM: N-acetyl-D-mannosamine; NADG: N-acetyl-D-glucosamine.

multi-species biofilms = assay: Multi-species biofilm organic acid balances (supernatant); conditions: >0 production, <0 consumption, mean±SD n=3
Method: as §1
To examine the effect of NADM and the influence of the orientation and absence/presence of the N-acetyl group on organic acid production and consumption, supernatant samples from substrate-treated or untreated multi-species biofilms are analysed. […] When comparing relevant significant differences between substrate conditions, an increase in acetate production is observed for NADM compared to D-(+)-mannose (3084±174 vs. 1934±56 mg/L).

[1] = system: P. intermedia virulence genes; assay: Multi-species biofilm virulence gene expression, SYBR RT-qPCR: P. intermedia; conditions: for Fold Change in virulence gene expression: DnaJ / Fold Change in virulence gene expression: DnaK / Fold Change in virulence gene expression: ECF / Fold Change in virulence gene expression: GroES / Fold Change in virulence gene expression: HtpG / Fold Change in virulence gene expression: KpsD / Fold Change in virulence gene expression: adpc / Fold Change in virulence gene expression: clpB / Fold Change in virulence gene expression: inpA / Fold Change in virulence gene expression: phg: relative to control (=1), 2^-ΔΔCt, geometric mean n=3
Method: as §1
The expression of 33 virulence genes from 4 periodontal pathogens is analysed to evaluate the relative virulence of the substrate-treated biofilms. For all three substrates, virulence gene expression is determined relatively to the control, and these values are also compared between substrates when this is relevant (Tables 5a-5d).

[2] = substrate 1%(w/v) in PBS, listed as D-(+)-mannose
[3] = substrate 1 M in PBS, listed as D-(+)-mannose
[4] = substrate 1 M, listed as D-(+)-mannose

O=C[C@@H](O)[C@@H](O)[C@H](O)[C@H](O)CO [D-mannose, D-(+)-mannose]
Absolute abundance Aa (A. actinomycetemcomitans) (A. actinomycetemcomitans; substrate 1%(w/v) in PBS): 9.02 ± 0.11 log(Geq/mL)
Absolute abundance Aa (A. actinomycetemcomitans) (A. actinomycetemcomitans; substrate 1 M in PBS): 6.07 ± 0.47 log(Geq/mL)
Decrease in F. nucleatum vs control (F. nucleatum; substrate 1%(w/v)): 1.1 log(Geq/mL)
Absolute abundance Fn (F. nucleatum) (F. nucleatum; substrate 1%(w/v) in PBS): 8.66 ± 0.29 log(Geq/mL)
Absolute abundance Fn (F. nucleatum) (F. nucleatum; substrate 1 M in PBS): 6.59 ± 0.36 log(Geq/mL)
Absolute abundance S. sobrinus (S. sobrinus; substrate 1%(w/v) in PBS): 5.28 ± 0.44 log(Geq/mL)
Absolute abundance S. sobrinus (S. sobrinus; substrate 1 M in PBS): 5.44 ± 0.31 log(Geq/mL)
Absolute abundance Av (A. viscosus) (A. viscosus; substrate 1%(w/v) in PBS): 8.00 ± 0.17 log(Geq/mL)
Absolute abundance Av (A. viscosus) (A. viscosus; substrate 1 M in PBS): 6.40 ± 0.48 log(Geq/mL)
Absolute abundance S. gord. (S. gordonii) (S. gordonii; substrate 1%(w/v) in PBS): 8.29 ± 0.11 log(Geq/mL)
Absolute abundance S. gord. (S. gordonii) (S. gordonii; substrate 1 M in PBS): 9.19 ± 0.39 log(Geq/mL)
Absolute abundance S. mitis (S. mitis; substrate 1%(w/v) in PBS): 3.00 ± 0.49 log(Geq/mL)
Absolute abundance S. mitis (S. mitis; substrate 1 M in PBS): <LOD
Absolute abundance S. sang. (S. sanguinis) (S. sanguinis; substrate 1%(w/v) in PBS): 8.19 ± 0.11 log(Geq/mL)
Absolute abundance S. sang. (S. sanguinis) (S. sanguinis; substrate 1 M in PBS): 7.39 ± 0.89 log(Geq/mL)
Absolute abundance Vp (V. parvula) (V. parvula; substrate 1%(w/v) in PBS): 9.93 ± 0.20 log(Geq/mL)
Absolute abundance Vp (V. parvula) (V. parvula; substrate 1 M in PBS): 10.18 ± 0.09 log(Geq/mL)
Relative abundance Beneficials/Commensals (multi-species biofilm; substrate 1%(w/v) in PBS): 84.18 ± 2.04 % (Geq/mL)
Relative abundance Cariogenic Pathogens (multi-species biofilm; substrate 1%(w/v) in PBS): 0.21 ± 0.04 % (Geq/mL)
Relative abundance Periodontal Pathogens (multi-species biofilm; substrate 1%(w/v) in PBS): 15.61 ± 2.00 % (Geq/mL)
Relative abundance Beneficials/Commensals (multi-species biofilm; [2]): 84.18±2.04 % (Geq/mL)
Relative abundance Periodontal Pathogens (multi-species biofilm; [2]): 15.61±2.00 % (Geq/mL)
Relative abundance Beneficial or commensals (multi-species biofilm; substrate 1 M in PBS): 96.83 ± 0.62 % (Geq/mL)
Relative abundance Cariogenic Pathogens (multi-species biofilm; substrate 1 M in PBS): 2.40 ± 0.85 % (Geq/mL)
Relative abundance Periodontal Pathogens (multi-species biofilm; substrate 1 M in PBS): 0.77 ± 0.82 *^, #1 % (Geq/mL)
Relative abundance Beneficial or commensals (multi-species biofilm; [3]): 96.83±0.62 % (Geq/mL)
Relative abundance Periodontal Pathogens (multi-species biofilm; [3]): 0.77±0.82 % (Geq/mL)
Reduction of A. actinomycetemcomitans, F. nucleatum, P. gingivalis, A. naeslundii and A. viscosus numbers vs control (multi-species biofilm; substrate 1 M, range over the species): −1.2 to −3.7 log(Geq/mL)
acetate level in biofilm supernatant (multi-species biofilms; substrate 1%(w/v)): 352 ± 24 mg/L
butyrate level in biofilm supernatant (multi-species biofilms; substrate 1%(w/v)): 1985 ± 37 mg/L
formate level in biofilm supernatant (multi-species biofilms; substrate 1%(w/v)): 3717 ± 114 mg/L
lactate level in biofilm supernatant (multi-species biofilms; substrate 1%(w/v)): 125 ± 0 mg/L
propionate level in biofilm supernatant (multi-species biofilms; substrate 1%(w/v)): 1962 ± 28 mg/L
acetate level in biofilm supernatant (multi-species biofilms; substrate 1 M): 1934 ± 56*^, #1 mg/L
butyrate level in biofilm supernatant (multi-species biofilms; substrate 1 M): 86 ± 15*^, #1, 2 mg/L
formate level in biofilm supernatant (multi-species biofilms; substrate 1 M): 398 ± 12 mg/L
lactate level in biofilm supernatant (multi-species biofilms; substrate 1 M): 125 ± 0 mg/L
propionate level in biofilm supernatant (multi-species biofilms; substrate 1 M): 2821 ± 127 mg/L
acetate level in biofilm supernatant (multi-species biofilms; [4]): 1934 ± 56 mg/L
butyrate level in biofilm supernatant (multi-species biofilms; [4]): 85 ± 15 mg/L
propionate level in biofilm supernatant (multi-species biofilms; [4]): 2821 ± 127 mg/L
Relative P. intermedia virulence gene expression, downregulation ([1]; substrate 1%(w/v), D-(+)-mannose for 3 genes): 2- to 2.7 fold
Fold Change in virulence gene expression: DnaJ ([1]; substrate 1%): 0.37 fold
Fold Change in virulence gene expression: DnaK ([1]; substrate 1%): 0.63 fold
Fold Change in virulence gene expression: ECF ([1]; substrate 1%): 0.6 fold
Fold Change in virulence gene expression: GroES ([1]; substrate 1%): 0.51 fold
Fold Change in virulence gene expression: HtpG ([1]; substrate 1%): 0.46 fold
Fold Change in virulence gene expression: KpsD ([1]; substrate 1%): 0.96 fold
Fold Change in virulence gene expression: adpc ([1]; substrate 1%): 0.54 fold
Fold Change in virulence gene expression: clpB ([1]; substrate 1%): 1.00 fold
Fold Change in virulence gene expression: inpA ([1]; substrate 1%): 0.37 fold
Fold Change in virulence gene expression: phg ([1]; substrate 1%): 0.50 fold
Fold Change in virulence gene expression: DnaJ ([1]; substrate 1M): 0.03 fold
Fold Change in virulence gene expression: DnaK ([1]; substrate 1M): 0.44 fold
Fold Change in virulence gene expression: ECF ([1]; substrate 1M): 1.47 fold
Fold Change in virulence gene expression: GroES ([1]; substrate 1M): 0.37 fold
Fold Change in virulence gene expression: HtpG ([1]; substrate 1M): 0.29 fold
Fold Change in virulence gene expression: KpsD ([1]; substrate 1M): 0.42 fold
Fold Change in virulence gene expression: adpc ([1]; substrate 1M): 0.27 fold
Fold Change in virulence gene expression: clpB ([1]; substrate 1M): 0.14 fold
Fold Change in virulence gene expression: inpA ([1]; substrate 1M): 0.47 fold
Fold Change in virulence gene expression: phg ([1]; substrate 1M): 0.10 fold
